{"source": "patent US20070117833A1", "about": "“Pharmaceutical compositions” (priority 2003, published 2007)", "key": {"[1]": {"tested_on": "human rheumatoid synovial fibroblast", "assay": "Spontaneous proliferation of human rheumatoid synovial fibroblast", "type": "cell-based"}, "[2]": {"tested_on": "LPS induced fever", "assay": "LPS fever (antipyretic effects)", "type": "in vivo", "details": "rats, LPS 100 μg/kg s.c., p.o.; (95% limits)", "experimental": "LPS fever. An injection of lypopolysaccharide (LPS) at a dose of 100 μg/kg in 5 ml/kg is given subcutaneously, and 2 hours later the temperature is measured using a rectal thermocouple. The rats are then placed into matched treatment groups according to their temperature responses. At time +4 hours, the mTOR inhibitor is administered p.o., and the final temperatures measured again at time +6 hours. The increase in temperature is calculated for each animal and the % inhibition determined for each treatment group compared to the vehicle control group."}, "[3]": {"tested_on": "IL-1β induced fever", "assay": "IL-1 fever (antipyretic effects)", "type": "in vivo", "details": "rats, 100 ng IL-1β i.v., p.o.", "experimental": "IL-1 fever. Baseline temperature is measured and the rats placed into matched groups. The animals are dosed with the mTOR inhibitor (0.5, 2 or 4 mg/kg) p.o., and 30 minutes later given an injection of 100 ng IL-1β i.v. At time +4hours the final temperatures are measured and the % inhibition calculated as for LPS fever."}, "[4]": {"tested_on": "paw hyperalgesia", "assay": "Anti-nociceptive activity in a model of inflammatory pain (intra-plantar yeast hyperalgesia)", "type": "in vivo, male OFA rats", "experimental": "Hyperalgesia is induced by an intra-plantar yeast injection and nociception measured by applying increasing pressure to the foot until the animal vocalizes or withdraws its foot from the pressure pad. The baseline pressure required to induce vocalization or withdrawal of the paw of male OFA rats is measured (−2 hours), followed by an intra-plantar injection of 100 μl of a 20% yeast suspension in water in the hind paw. The rats are treated orally with rapamycin or a derivative thereof (0.5, 2 or 4 mg/kg) or vehicle (saline) p.o. 2 hours later (0 hours), and the pressure test repeated 1 and 2 hours after dosing. The pressure required to induce vocalization or paw withdrawal of the compound-treated rats at these time-points is compared to that of vehicle-treated animals."}, "[5]": {"tested_on": "rheumatoid arthritis", "assay": "Placebo-controlled, double blind clinical trial in RA patients who are methotrexate partial responders", "type": "in vivo, human", "details": "6 mg/day in combination with background methotrexate", "experimental": "120 patients who are methotrexate partial responders are randomized in 2 groups to receive the mTOR inhibitor a) or placebo once daily for 12 weeks while continuing their background methotrexate treatment. There is an initial Screening visit (days −21 to −7) prior to the baseline. Disease status is assessed at the Screening and Baseline visits. During the 12 weeks treatment period the patients will be seen at Weeks 1, 2, 4, 8 and 12 and in the follow-up period at Weeks 14, 16, 20 and 24.\nThe criteria for inclusion of the patients in the trial: they must have a diagnosis of RA as defined by the […] revised ARA criteria with disease duration of no less than 6 months. All patients must have active RA as defined by the following parameters: • at least 6 swollen and 9 tender joints based on 58/60 joint count upon entry into the study • one of the following: erythrocyte sedimentation rate (ESR) >28 mm/hr, C-reactive protein (CRP)>1.5 mg/dL or morning stiffness>45 minutes\nPatients must have received methotrexate for at least 16 weeks and must be on a stable dose (≧7.5 mg/week) and route of administration for at least 8 weeks prior to Day 1. […]\nThe primary efficacy outcome measure is the attainment of ACR20 criteria for improvement of RA and the proportion of patients in each group meeting the ACR20 criteria is determined. […]"}, "[6]": {"assay": "4-week toxicity study in rats", "type": "in vivo", "experimental": "(§1) Rapamycin or derivatives thereof are well tolerated at dosages required for use in accordance with the present invention. For example, the NTEL for Compound A in a 4-week toxicity study is 0.5 mg/kg/day in rats and 1.5 mg/kg/day in monkeys."}, "[7]": {"assay": "4-week toxicity study in monkeys", "type": "in vivo", "experimental": "as §1"}}, "data": [{"molecule": "CO[C@H]1C[C@@H]2CC[C@@H](C)[C@@](O)(O2)C(=O)C(=O)N2CCCC[C@H]2C(=O)O[C@H]([C@H](C)C[C@@H]2CC[C@@H](OCCO)[C@H](OC)C2)CC(=O)[C@H](C)/C=C(\\C)[C@@H](O)[C@@H](OC)C(=O)[C@H](C)C[C@H](C)/C=C/C=C/C=C/1C", "note": "[Compound A, 40-0-(2-hydroxyethyl)-rapamycin]", "values": [{"measurement": "concentration at which maximal effects are observed", "setting": "[1]; bromodeoxyuridine method", "value": 10, "unit": "pM"}, {"measurement": "suppression of the growth of synovial cells", "setting": "[1]; by both criteria: bromodeoxyuridine incorporation and direct counting of viable cells", "value": "significantly suppresses"}, {"measurement": "concentration at which maximal effects are shown", "setting": "[1]; direct cell counting", "value": 10, "unit": "nM"}, {"measurement": "ED50 inhibition of LPS-induced fever", "setting": "[2]", "value": "1.9 (1.21-2.41) mg/kg p.o."}, {"measurement": "ED50 inhibition of IL-1β-induced fever", "setting": "[3]", "value": "< 0.54", "unit": "mg/kg p.o."}, {"measurement": "inhibition of paw hyperalgesia", "setting": "[4]; 2 mg/kg p.o., 1 hour after dosing", "value": "significantly inhibits"}, {"measurement": "inhibition of paw hyperalgesia", "setting": "[4]; 4 mg/kg p.o., 1 hour after dosing", "value": "significantly inhibits"}, {"measurement": "inhibition of paw hyperalgesia", "setting": "[4]; 4 mg/kg p.o., 2 hours after dosing", "value": "significantly inhibits"}, {"measurement": "ACR Responders (in %) to ACR20", "setting": "[5]; Week 2", "value": 14.8, "unit": "%"}, {"measurement": "ACR Responders (in %) to ACR20", "setting": "[5]; Week 12", "value": 36.1, "unit": "%"}, {"measurement": "NTEL", "setting": "[6]", "value": 0.5, "unit": "mg/kg/day"}, {"measurement": "NTEL", "setting": "[7]", "value": 1.5, "unit": "mg/kg/day"}]}, {"molecule": "CO[C@H]1C[C@@H]2CC[C@@H](C)[C@@](O)(O2)C(=O)C(=O)N2CCCC[C@H]2C(=O)O[C@H]([C@H](C)C[C@@H]2CC[C@@H](O)[C@H](OC)C2)CC(=O)[C@H](C)/C=C(\\C)[C@@H](O)[C@@H](OC)C(=O)[C@H](C)C[C@H](C)/C=C/C=C/C=C/1C", "note": "[rapamycin, Rapamycin, reference compound]", "values": [{"measurement": "concentration at which suppression is maximal", "setting": "[1]; synovial cell growth assessed by total intracellular ATP levels", "value": 10, "unit": "pM"}]}]}
